We go through two molecules from US20260068885A1, “HERBICIDAL COMPOSITIONS” (BAYER AKTIENGESELLSCHAFT, priority 2022, published 2026).

Common to all, as to experiment: Post-emergence herbicidal action against harmful plants (greenhouse)
Holding throughout (assay type): in vivo

In test [1] the test system is Abutilon theophrasti (ABUTH). How it is done:
(§1) Seeds of monocotyledonous and dicotyledonous weed and crop plants are laid out in sandy loam soil in wood-fibre pots, covered with soil and cultivated in a greenhouse under good growth conditions. 2 to 3 weeks after sowing, the test plants are treated at the one-leaf stage. The compounds of the invention, formulated in the form of wettable powders (WP) or as emulsion concentrates (EC), are then sprayed onto the green parts of the plants in the form of an aqueous suspension or emulsion at a water application rate equivalent to 600 to 800 l/ha, with addition of 0.2% wetting agent. After the test plants have been […], the action of the preparations is assessed visually in comparison to untreated controls (herbicidal action in percent (%): 100% activity=the plants have died, 0% activity=like control plants). […] The tables below illustrate, in an illustrative manner, the post-emergence herbicidal action of the compounds of the invention, the herbicidal activity being stated in percent.
(§2) In the tables that follow, the abbreviations mean the following: • E: means the synergism value to be expected according to the Colby formula. • Δ SYN: means the difference between the actual and expected synergism value. • DAT: means days after treatment.

For the next test, the system named is Cyperus iria (CYPIR). How it is done:
as §1, §2

In test [2] the test system is Erigeron bonariensis (ERIBO). The protocol: as §1, §2
The next test relates to Solanum nigrum (SOLNI). How it is done:
as §1, §2

The test system of test [3] is Brachiaria platyphylla (BRAPP). How it is done:
(§3) Seeds of monocotyledonous and dicotyledonous weed and crop plants are laid out in sandy loam soil in wood-fibre pots, covered with soil and cultivated in a greenhouse under good growth conditions. 2 to 3 weeks after sowing, the test plants are treated at the one-leaf stage. The compounds of the invention, formulated in the form of wettable powders (WP) or as emulsion concentrates (EC), are then sprayed onto the green parts of the plants in the form of an aqueous suspension or emulsion at a water application rate equivalent to 600 to 800 l/ha, with addition of 0.2% wetting agent. After the test plants have been left to stand in the greenhouse under optimal growth conditions for about 3 weeks, the action of the preparations is assessed visually in comparison to untreated controls (herbicidal action in percent (%): 100% activity=the plants have died, 0% activity=like control plants). […] The tables below illustrate, in an illustrative manner, the post-emergence herbicidal action of the compounds of the invention, the herbicidal activity being stated in percent.
as §2

For a further test, the system named is Emex australis (EMEAU). The settings on record: EMEAU 21 DAT. How it is done:
as §3, §2

Test [4] deals with Sorghum halepense (SORHA). How it is done: as §3, §2
Test [5] relates to Xanthium strumarium (XANST). The protocol:
as §3, §2

For test [6], the system named is Polygonum convolvulus (POLCO).
The subject of test [7] is Xanthium strumarium (XANST). As to conditions: 10 DAT.
In a further test the test system is Setaria viridis (SETVI). The protocol: as §1, §2
In test [8] the test system is Pharbitis purpurea (PHBPU). As to conditions: 5 g a.i./ha.

With `C=C[C@]1(C(=O)N[C@H]2C=C[C@@H](C(=O)OC)C2)CC(c2cc(F)cc(F)c2)=NO1` [P2, methyl (1S,4R)-4-[[(5S)-3-(3,5-difluorophenyl)-5-vinyl-4H-isoxazole-5-carbonyl]amino]cyclopent-2-ene-1-carboxylate], the Herbicidal efficacy in test [1] (ABUTH 10 DAT, 0.3 g a.i./ha) is recorded as 20%; in test [1] (ABUTH 10 DAT, 1.2 g a.i./ha), 30%; in test [1] (ABUTH 21 DAT, 0.3 g a.i./ha), 10%; in test [1] (ABUTH 21 DAT, 1.2 g a.i./ha), 20%; with Cyperus iria (CYPIR) (CYPIR 10 DAT, 0.3 g a.i./ha), 50%; with Cyperus iria (CYPIR) (CYPIR 10 DAT, 1.2 g a.i./ha), 88%. Moreover, the Herbicidal efficacy stood at 40% in the test with Cyperus iria (CYPIR) (CYPIR 21 DAT, 0.3 g a.i./ha); 88% in the test on Cyperus iria (CYPIR) (CYPIR 21 DAT, 1.2 g a.i./ha); 0% in [2] (ERIBO 10 DAT, 0.3 g a.i./ha); 0% in test [2] (ERIBO 21 DAT, 0.3 g a.i./ha); 60% with Solanum nigrum (SOLNI) (SOLNI 10 DAT, 0.3 g a.i./ha); 40% in the test with Solanum nigrum (SOLNI) (SOLNI 21 DAT, 1.2 g a.i./ha). Moreover, the Herbicidal efficacy was 85% in test [3] (BRAPP 21 DAT, 0.3 g a.i./ha); 88% with Emex australis (EMEAU) (0.3 g a.i./ha); 88% in the test on Emex australis (EMEAU) (1.2 g a.i./ha); 90% in test [6] (POLCO 21 DAT, 0.3 g a.i./ha). Moreover, in test [4] (application rate 0.3 g a.i./ha), the “Herbicidal efficacy [%] against SORHA 10 DAT” value is reported as 80%. Moreover, the “Herbicidal efficacy [%] against XANST 21 DAT” value in [5] (application rate 0.3 g a.i./ha) was 10%. Besides, in [7] (application rate 0.3 g a.i./ha), the “Herbicidal efficacy [%] against XANST 10 DAT” value was 20%.
Take `CCn1ncc(C(=O)c2ccc(S(C)(=O)=O)c(COCC(F)(F)F)c2Cl)c1OC(=O)c1cn(C)nc1C` [fenpyrazone]: the Herbicidal efficacy was 30% in [1] (ABUTH 21 DAT, 20 g a.i./ha); 30% in the test on Cyperus iria (CYPIR) (CYPIR 10 DAT, 5 g a.i./ha); 20% in the test on Cyperus iria (CYPIR) (CYPIR 10 DAT, 20 g a.i./ha); 30% with Cyperus iria (CYPIR) (CYPIR 21 DAT, 5 g a.i./ha); 10% with Cyperus iria (CYPIR) (CYPIR 21 DAT, 20 g a.i./ha); 80% in test [2] (ERIBO 21 DAT, 5 g a.i./ha). The Herbicidal efficacy in [2] (ERIBO 21 DAT, 20 g a.i./ha) was determined as 80%; with Setaria viridis (SETVI) (SETVI 10 DAT, 5 g a.i./ha), 30%; with Setaria viridis (SETVI) (SETVI 10 DAT, 20 g a.i./ha), 50%; with Setaria viridis (SETVI) (SETVI 21 DAT, 5 g a.i./ha), 20%; with Setaria viridis (SETVI) (SETVI 21 DAT, 20 g a.i./ha) it was 20%; in [3] (BRAPP 10 DAT, 5 g a.i./ha) it was 30%. For the same molecule, the Herbicidal efficacy in test [3] (BRAPP 10 DAT, 20 g a.i./ha) came out at 75%; in [3] (BRAPP 21 DAT, 5 g a.i./ha), 10%; in test [3] (BRAPP 21 DAT, 20 g a.i./ha), 20%; in the test on Emex australis (EMEAU) (20 g a.i./ha), 0%; in test [8] (PHBPU 10 DAT) it was 0%; in test [8] (PHBPU 21 DAT), 0%. The Herbicidal efficacy in test [6] (POLCO 10 DAT, 5 g a.i./ha) is given as 0%; in [6] (POLCO 21 DAT, 5 g a.i./ha) it was 0%; in test [6] (POLCO 21 DAT, 20 g a.i./ha), 10%. The “Herbicidal efficacy [%] against SORHA 10 DAT” value came to 20% in [4] (application rate 5 g a.i./ha) and 30% in [4] (application rate 20 g a.i./ha). Further, the entries for the “Herbicidal efficacy [%] against SORHA 21 DAT” value in test [4] (application rate 5 g a.i./ha) and in test [4] (application rate 20 g a.i./ha) were 10% and 20%, respectively. In test [5] (application rate 20 g a.i./ha), the “Herbicidal efficacy [%] against XANST 21 DAT” value worked out at 70%. In addition, the “Herbicidal efficacy [%] against XANST 10 DAT” value in test [7] (application rate 20 g a.i./ha) was 88%.
